{"source": "paper PMC8550792", "about": "“Evolution of kinase polypharmacology across HSP90 drug discovery” (Cell Chemical Biology, 2021)", "key": {"FGR": {"target": "T1, FGR (Homo sapiens, UniProt P09769)", "T1 construct": "purchased Reaction Biology (HotSpot contract assay)", "T1 sequence (P09769 whole entry)": "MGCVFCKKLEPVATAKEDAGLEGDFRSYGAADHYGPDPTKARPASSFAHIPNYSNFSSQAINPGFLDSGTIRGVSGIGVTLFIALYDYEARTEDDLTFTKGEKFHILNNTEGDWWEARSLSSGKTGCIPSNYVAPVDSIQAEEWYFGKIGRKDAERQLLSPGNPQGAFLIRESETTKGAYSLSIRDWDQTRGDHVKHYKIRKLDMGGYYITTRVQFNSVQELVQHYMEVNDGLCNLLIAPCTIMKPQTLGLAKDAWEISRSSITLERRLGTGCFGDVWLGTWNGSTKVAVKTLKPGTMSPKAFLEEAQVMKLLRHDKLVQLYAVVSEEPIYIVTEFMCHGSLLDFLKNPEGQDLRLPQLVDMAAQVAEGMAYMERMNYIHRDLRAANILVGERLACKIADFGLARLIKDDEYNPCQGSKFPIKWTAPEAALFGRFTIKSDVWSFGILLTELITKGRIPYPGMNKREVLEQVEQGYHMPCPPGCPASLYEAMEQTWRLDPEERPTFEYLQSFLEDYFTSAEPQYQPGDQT", "experiment": "HotSpot in vitro kinase radiometric assay", "assay_type": "biochemical", "conditions": "10uM, ATP 50 uM, Data 1, Data 2"}, "TRAP1": {"system": "TRAP1", "parameters": "method as in ChEMBL23 (accessed: 23/08/2018)", "conditions": "average of reported values; ref ChEMBL23 (accessed: 23/08/2018); cited from earlier work"}, "LCK": {"target": "T2, LCK (Homo sapiens, UniProt P06239)", "T2 construct": "purchased Reaction Biology (HotSpot contract assay)", "T2 sequence (P06239 whole entry)": "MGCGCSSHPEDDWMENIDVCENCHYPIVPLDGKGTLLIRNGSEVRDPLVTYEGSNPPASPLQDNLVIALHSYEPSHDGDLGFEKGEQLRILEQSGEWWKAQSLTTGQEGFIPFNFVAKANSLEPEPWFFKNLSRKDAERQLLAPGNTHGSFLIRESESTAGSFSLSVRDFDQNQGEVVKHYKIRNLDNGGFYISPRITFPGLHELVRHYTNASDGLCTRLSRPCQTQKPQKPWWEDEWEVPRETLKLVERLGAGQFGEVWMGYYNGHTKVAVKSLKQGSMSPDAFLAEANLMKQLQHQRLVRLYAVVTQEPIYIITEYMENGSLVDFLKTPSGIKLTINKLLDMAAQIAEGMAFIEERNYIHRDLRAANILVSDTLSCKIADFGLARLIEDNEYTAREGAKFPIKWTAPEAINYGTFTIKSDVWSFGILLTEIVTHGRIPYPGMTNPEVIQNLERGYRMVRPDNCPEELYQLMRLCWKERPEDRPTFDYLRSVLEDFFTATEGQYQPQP", "experiment": "HotSpot in vitro kinase radiometric assay", "assay_type": "biochemical", "conditions": "10uM, ATP 15 uM, Data 1, Data 2"}, "HSP90AB1": {"system": "HSP90AB1", "parameters": "method as in ChEMBL23 (accessed: 23/08/2018)", "conditions": "average of reported values; ref ChEMBL23 (accessed: 23/08/2018); cited from earlier work"}, "DDR1": {"target": "DDR1 (Homo sapiens, UniProt Q08345)", "experiment": "HotSpot in vitro kinase radiometric assay", "assay_type": "biochemical", "parameters": "purchased Reaction Biology (HotSpot contract assay)", "conditions": "10uM, ATP 100 uM, Data 1, Data 2"}, "c-Src": {"target": "T3, c-Src (Homo sapiens, UniProt P12931)", "T3 construct": "purchased Reaction Biology (HotSpot contract assay)", "T3 sequence (P12931 whole entry)": "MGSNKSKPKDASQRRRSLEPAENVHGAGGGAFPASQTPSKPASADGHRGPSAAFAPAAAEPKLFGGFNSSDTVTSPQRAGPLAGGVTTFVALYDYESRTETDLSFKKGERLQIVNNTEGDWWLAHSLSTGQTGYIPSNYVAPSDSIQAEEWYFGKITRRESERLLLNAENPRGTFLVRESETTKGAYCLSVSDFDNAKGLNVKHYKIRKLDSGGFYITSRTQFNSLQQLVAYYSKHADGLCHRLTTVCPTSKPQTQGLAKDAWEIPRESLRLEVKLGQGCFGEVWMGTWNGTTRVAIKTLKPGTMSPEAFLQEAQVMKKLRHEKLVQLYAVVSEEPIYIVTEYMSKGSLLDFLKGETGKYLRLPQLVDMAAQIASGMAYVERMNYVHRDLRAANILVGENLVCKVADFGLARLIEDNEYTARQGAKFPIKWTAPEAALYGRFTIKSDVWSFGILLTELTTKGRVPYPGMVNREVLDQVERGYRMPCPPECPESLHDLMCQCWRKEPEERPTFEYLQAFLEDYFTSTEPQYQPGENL", "experiment": "HotSpot in vitro kinase radiometric assay", "assay_type": "biochemical", "conditions": "10uM, ATP 15 uM, Data 1, Data 2", "method": "(§1) Accordingly, we selected five additional representative HSP90 inhibitors, at least one from each chemical class, including both synthetic inhibitors and natural products. […]\n(§2) This radioisotope binding assay was designed to directly detect the true product without the use of modified substrates, coupling enzymes, or detection antibodies thus enabling to directly measure inhibition of catalytic activity. Test or control compounds were incubated with kinase, substrate, cofactors, and radioisotope-labeled ATP (32P-ɣ-ATP or 33P-ɣ-ATP). The reaction mixtures were then spotted onto filter papers, which bind the radioisotope-labeled catalytic product."}, "PDK4/PDKH4": {"target": "T4, PDK4/PDKH4 (Homo sapiens, UniProt Q16654)", "T4 construct": "purchased Reaction Biology (HotSpot contract assay)", "experiment": "HotSpot in vitro kinase radiometric assay", "assay_type": "biochemical", "conditions": "10uM, ATP 30 uM, Data 1, Data 2", "method": "as §1, §2"}, "LYN B": {"target": "T5, LYN B (Homo sapiens, UniProt P07948)", "T5 construct": "purchased Reaction Biology (HotSpot contract assay)", "experiment": "HotSpot in vitro kinase radiometric assay", "assay_type": "biochemical", "conditions": "10uM, ATP 20 uM, Data 1, Data 2", "method": "as §1, §2"}, "BLK": {"target": "T6, BLK (Homo sapiens, UniProt P51451)", "T6 construct": "purchased Reaction Biology (HotSpot contract assay)", "T6 sequence (P51451 whole entry)": "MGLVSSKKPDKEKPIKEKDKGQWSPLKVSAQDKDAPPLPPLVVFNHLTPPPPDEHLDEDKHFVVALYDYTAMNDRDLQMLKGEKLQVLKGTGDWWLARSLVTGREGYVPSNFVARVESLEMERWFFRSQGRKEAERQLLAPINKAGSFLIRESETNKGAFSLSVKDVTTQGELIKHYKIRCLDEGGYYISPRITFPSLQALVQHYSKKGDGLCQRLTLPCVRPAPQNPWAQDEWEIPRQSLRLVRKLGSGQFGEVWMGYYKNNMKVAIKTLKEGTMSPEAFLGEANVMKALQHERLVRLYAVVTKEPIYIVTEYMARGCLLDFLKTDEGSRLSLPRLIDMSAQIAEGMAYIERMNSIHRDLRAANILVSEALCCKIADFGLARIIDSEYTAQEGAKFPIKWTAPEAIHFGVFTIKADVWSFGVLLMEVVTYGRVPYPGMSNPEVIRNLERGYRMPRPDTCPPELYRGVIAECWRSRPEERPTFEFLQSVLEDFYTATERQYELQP", "experiment": "HotSpot in vitro kinase radiometric assay", "assay_type": "biochemical", "conditions": "10uM, ATP 10 uM, Data 1, Data 2", "method": "as §1, §2"}, "ABL2/ARG": {"target": "T7, ABL2/ARG (Homo sapiens, UniProt P42684)", "T7 construct": "purchased Reaction Biology (HotSpot contract assay)", "experiment": "HotSpot in vitro kinase radiometric assay", "assay_type": "biochemical", "conditions": "10uM, ATP 30 uM, Data 1, Data 2"}, "FYN": {"target": "T8, FYN (Homo sapiens, UniProt P06241)", "T8 construct": "purchased Reaction Biology (HotSpot contract assay)", "T8 sequence (P06241 whole entry)": "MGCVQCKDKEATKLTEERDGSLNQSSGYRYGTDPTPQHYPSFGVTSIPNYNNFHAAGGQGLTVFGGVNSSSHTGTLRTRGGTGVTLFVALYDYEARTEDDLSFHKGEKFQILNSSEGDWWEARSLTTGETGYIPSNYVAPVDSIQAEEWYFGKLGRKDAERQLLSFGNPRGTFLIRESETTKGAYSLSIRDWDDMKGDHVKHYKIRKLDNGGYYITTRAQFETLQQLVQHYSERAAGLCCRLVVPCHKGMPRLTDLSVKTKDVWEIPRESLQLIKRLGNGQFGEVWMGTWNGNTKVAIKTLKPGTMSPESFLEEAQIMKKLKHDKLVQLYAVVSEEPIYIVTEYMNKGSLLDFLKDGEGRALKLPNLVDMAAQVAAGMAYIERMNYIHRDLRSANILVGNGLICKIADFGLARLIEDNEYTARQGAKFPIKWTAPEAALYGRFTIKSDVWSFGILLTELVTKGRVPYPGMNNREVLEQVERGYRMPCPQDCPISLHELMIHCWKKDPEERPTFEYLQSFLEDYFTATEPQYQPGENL", "experiment": "HotSpot in vitro kinase radiometric assay", "assay_type": "biochemical", "conditions": "10uM, ATP 30 uM, Data 1, Data 2"}, "PEAK1": {"target": "T9, PEAK1 (Homo sapiens, UniProt Q9H792)", "T9 construct": "purchased Reaction Biology (HotSpot contract assay)", "experiment": "HotSpot in vitro kinase radiometric assay", "assay_type": "biochemical", "conditions": "10uM, ATP 30 uM, Data 1, Data 2"}, "YES/YES1": {"target": "T10, YES/YES1 (Homo sapiens, UniProt P07947)", "T10 construct": "purchased Reaction Biology (HotSpot contract assay)", "experiment": "HotSpot in vitro kinase radiometric assay", "assay_type": "biochemical", "conditions": "10uM, ATP 50 uM, Data 1, Data 2"}, "PASK": {"target": "T11, PASK (Homo sapiens, UniProt Q96RG2)", "T11 construct": "purchased Reaction Biology (HotSpot contract assay)", "T11 sequence (Q96RG2 whole entry)": "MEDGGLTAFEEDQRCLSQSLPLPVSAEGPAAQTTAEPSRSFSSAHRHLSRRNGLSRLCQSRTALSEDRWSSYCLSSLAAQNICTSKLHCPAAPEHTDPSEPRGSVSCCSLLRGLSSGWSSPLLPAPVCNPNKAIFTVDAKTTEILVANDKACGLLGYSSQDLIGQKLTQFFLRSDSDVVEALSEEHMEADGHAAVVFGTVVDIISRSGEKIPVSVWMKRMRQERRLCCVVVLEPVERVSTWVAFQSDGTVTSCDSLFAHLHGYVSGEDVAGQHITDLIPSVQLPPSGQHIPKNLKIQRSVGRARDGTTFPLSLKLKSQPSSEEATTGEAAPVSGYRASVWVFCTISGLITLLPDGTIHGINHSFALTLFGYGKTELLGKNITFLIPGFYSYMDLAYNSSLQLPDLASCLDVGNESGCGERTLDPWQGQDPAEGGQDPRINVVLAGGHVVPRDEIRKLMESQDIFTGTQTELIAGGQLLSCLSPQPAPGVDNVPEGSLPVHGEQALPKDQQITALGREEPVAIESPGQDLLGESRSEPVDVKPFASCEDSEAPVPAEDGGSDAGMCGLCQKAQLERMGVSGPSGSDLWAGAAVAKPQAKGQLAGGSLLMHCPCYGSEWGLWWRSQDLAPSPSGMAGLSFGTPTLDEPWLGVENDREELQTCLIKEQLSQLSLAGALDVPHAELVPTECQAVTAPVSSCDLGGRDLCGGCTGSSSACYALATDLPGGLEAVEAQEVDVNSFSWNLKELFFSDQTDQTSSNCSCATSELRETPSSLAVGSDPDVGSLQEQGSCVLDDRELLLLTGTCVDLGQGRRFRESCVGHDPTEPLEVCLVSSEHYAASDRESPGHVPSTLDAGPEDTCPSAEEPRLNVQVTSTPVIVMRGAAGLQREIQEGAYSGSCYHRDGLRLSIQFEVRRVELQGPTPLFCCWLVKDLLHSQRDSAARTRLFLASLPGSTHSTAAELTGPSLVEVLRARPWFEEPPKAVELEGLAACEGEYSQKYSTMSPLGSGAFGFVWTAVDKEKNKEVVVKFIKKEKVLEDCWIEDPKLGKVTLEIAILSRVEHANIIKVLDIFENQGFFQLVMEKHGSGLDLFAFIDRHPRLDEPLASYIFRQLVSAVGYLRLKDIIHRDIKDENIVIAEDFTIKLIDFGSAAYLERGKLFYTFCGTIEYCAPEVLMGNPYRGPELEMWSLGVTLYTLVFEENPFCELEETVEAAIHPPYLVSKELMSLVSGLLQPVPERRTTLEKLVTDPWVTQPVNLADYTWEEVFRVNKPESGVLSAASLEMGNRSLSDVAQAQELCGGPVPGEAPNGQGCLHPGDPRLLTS", "experiment": "HotSpot in vitro kinase radiometric assay", "assay_type": "biochemical", "conditions": "10uM, ATP 50 uM, Data 1, Data 2", "excerpt": "(§3) Accordingly, we selected five additional representative HSP90 inhibitors, at least one from each chemical class, including both synthetic inhibitors and natural products.\n(§4) Accordingly, we screened the hit compound and the two leads for kinase off-target inhibition using the 16-kinase panel and the same in vitro catalytic assay used previously.\nas §2"}, "TRKA": {"target": "T12, TRKA (Homo sapiens, UniProt P04629)", "T12 construct": "purchased Reaction Biology (HotSpot contract assay)", "experiment": "HotSpot in vitro kinase radiometric assay", "assay_type": "biochemical", "conditions": "10uM, ATP 100 uM, Data 1, Data 2", "excerpt": "as §3, §4, §2"}, "16-kinase panel": {"system": "16-kinase panel", "experiment": "16-kinase panel screening, in vitro radiometric assay", "assay_type": "biochemical, human", "conditions": "10 μM"}, "TRKC": {"target": "T13, TRKC (Homo sapiens, UniProt Q16288)", "T13 construct": "purchased Reaction Biology (HotSpot contract assay)", "experiment": "HotSpot in vitro kinase radiometric assay", "assay_type": "biochemical", "conditions": "10uM, ATP 100 uM, Data 1, Data 2"}, "ABL1": {"target": "ABL1 (Homo sapiens, UniProt P00519)", "sequence (P00519 whole entry)": "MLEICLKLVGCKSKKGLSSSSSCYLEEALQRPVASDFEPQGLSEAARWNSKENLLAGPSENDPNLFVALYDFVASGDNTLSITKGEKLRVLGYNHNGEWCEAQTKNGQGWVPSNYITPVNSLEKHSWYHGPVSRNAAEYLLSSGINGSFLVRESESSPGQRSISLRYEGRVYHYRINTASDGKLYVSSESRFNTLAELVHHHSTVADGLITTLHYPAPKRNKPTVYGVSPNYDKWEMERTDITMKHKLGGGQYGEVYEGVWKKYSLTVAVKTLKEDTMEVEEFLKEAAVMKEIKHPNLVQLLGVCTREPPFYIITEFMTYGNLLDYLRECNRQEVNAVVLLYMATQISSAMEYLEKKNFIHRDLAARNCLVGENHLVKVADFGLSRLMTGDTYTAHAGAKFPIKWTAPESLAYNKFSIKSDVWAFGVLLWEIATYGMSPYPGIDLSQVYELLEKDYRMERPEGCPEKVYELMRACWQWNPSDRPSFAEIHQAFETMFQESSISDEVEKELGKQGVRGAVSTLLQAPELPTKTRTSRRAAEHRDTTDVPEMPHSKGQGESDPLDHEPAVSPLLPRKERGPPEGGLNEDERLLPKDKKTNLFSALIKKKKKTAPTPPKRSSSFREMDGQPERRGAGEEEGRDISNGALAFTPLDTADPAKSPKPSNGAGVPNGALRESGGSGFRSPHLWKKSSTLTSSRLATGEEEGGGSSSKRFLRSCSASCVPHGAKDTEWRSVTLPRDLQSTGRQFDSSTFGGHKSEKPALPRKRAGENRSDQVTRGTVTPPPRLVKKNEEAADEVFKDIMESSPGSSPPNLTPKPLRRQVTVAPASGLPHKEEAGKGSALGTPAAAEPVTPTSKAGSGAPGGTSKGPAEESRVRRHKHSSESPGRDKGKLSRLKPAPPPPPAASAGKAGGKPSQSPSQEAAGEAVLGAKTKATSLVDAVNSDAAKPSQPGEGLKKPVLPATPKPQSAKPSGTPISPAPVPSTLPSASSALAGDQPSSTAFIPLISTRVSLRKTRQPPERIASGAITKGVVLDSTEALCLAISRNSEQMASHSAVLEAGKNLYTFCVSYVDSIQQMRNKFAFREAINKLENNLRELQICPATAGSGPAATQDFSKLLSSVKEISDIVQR", "experiment": "HotSpot in vitro kinase radiometric assay", "assay_type": "biochemical", "parameters": "purchased Reaction Biology (HotSpot contract assay)", "conditions": "10uM, ATP 40 uM, Data 1, Data 2"}, "382 unique human kinases": {"system": "382 unique human kinases", "experiment": "biochemical", "assay_type": "biochemical", "conditions": "cutoff of >85% inhibition at 10 μM; luminespib and ganetespib large kinome panel, others 16-kinase panel"}}, "note": "Where two headings read alike, the source gives them in different places.", "data": [{"smiles": "COC1=C2C[C@@H](C)C[C@H](OC)[C@H](O)[C@@H](C)/C=C(\\C)[C@H](OC(N)=O)[C@@H](OC)/C=C\\C=C(/C)C(=O)NC(=CC1=O)C2=O", "note": "[Geldanamycin]", "values": [{"measurement": "remaining activity at 10 µM", "setting": "FGR; FGR, read-out: % Enzyme Activity (relative to DMSO controls)", "result": 113, "unit": "%"}, {"measurement": "pActivity, TRAP1", "setting": "TRAP1", "result": 6.18}, {"measurement": "remaining activity at 10 µM", "setting": "LCK; LCK, read-out: % Enzyme Activity (relative to DMSO controls)", "result": 125, "unit": "%"}, {"measurement": "pActivity, HSP90AB1", "setting": "HSP90AB1", "result": 6.99}, {"measurement": "remaining activity at 10 µM", "setting": "DDR1; DDR1, read-out: % Enzyme Activity (relative to DMSO controls)", "result": 104, "unit": "%"}, {"measurement": "remaining activity at 10 µM", "setting": "c-Src; c-Src, read-out: % Enzyme Activity (relative to DMSO controls)", "result": 110, "unit": "%"}, {"measurement": "remaining activity at 10 µM", "setting": "PDK4/PDKH4; PDK4/PDKH4, read-out: % Enzyme Activity (relative to DMSO controls)", "result": 100, "unit": "%"}, {"measurement": "remaining activity at 10 µM", "setting": "LYN B; LYN B, read-out: % Enzyme Activity (relative to DMSO controls)", "result": 111, "unit": "%"}, {"measurement": "remaining activity at 10 µM", "setting": "BLK; BLK, read-out: % Enzyme Activity (relative to DMSO controls)", "result": 121, "unit": "%"}, {"measurement": "remaining activity at 10 µM", "setting": "ABL2/ARG; ABL2/ARG, read-out: % Enzyme Activity (relative to DMSO controls)", "result": 115, "unit": "%"}, {"measurement": "remaining activity at 10 µM", "setting": "FYN; FYN, read-out: % Enzyme Activity (relative to DMSO controls)", "result": 121, "unit": "%"}, {"measurement": "remaining activity at 10 µM", "setting": "PEAK1; PEAK1, read-out: % Enzyme Activity (relative to DMSO controls)", "result": 108, "unit": "%"}, {"measurement": "remaining activity at 10 µM", "setting": "YES/YES1; YES/YES1, read-out: % Enzyme Activity (relative to DMSO controls)", "result": 103, "unit": "%"}, {"measurement": "remaining activity at 10 µM", "setting": "PASK; PASK, read-out: % Enzyme Activity (relative to DMSO controls)", "result": 106, "unit": "%"}, {"measurement": "remaining activity at 10 µM", "setting": "TRKA; TRKA, read-out: % Enzyme Activity (relative to DMSO controls)", "result": 104, "unit": "%"}, {"measurement": "activity against the 16-kinase panel", "setting": "16-kinase panel", "result": "inactive"}, {"measurement": "remaining activity at 10 µM", "setting": "TRKC; TRKC, read-out: % Enzyme Activity (relative to DMSO controls)", "result": 99.5, "unit": "%"}, {"measurement": "remaining activity at 10 µM", "setting": "ABL1; ABL1, read-out: % Enzyme Activity (relative to DMSO controls)", "result": 100, "unit": "%"}]}, {"smiles": "CC1(C)CC(=O)c2c(C(F)(F)F)nn(-c3ccc(C(N)=O)c(N[C@H]4CC[C@H](O)CC4)c3)c2C1", "note": "[SNX-2112]", "values": [{"measurement": "remaining activity at 10 µM", "setting": "FGR; read-out: % Enzyme Activity (relative to DMSO controls), FGR", "result": 111, "unit": "%"}, {"measurement": "pActivity, TRAP1", "setting": "TRAP1", "result": 6.12}, {"measurement": "remaining activity at 10 µM", "setting": "LCK; read-out: % Enzyme Activity (relative to DMSO controls), LCK", "result": 114, "unit": "%"}, {"measurement": "number of off-target kinases experimentally identified, In vitro binding (KinomeSCAN)", "setting": "382 unique human kinases", "result": 0}, {"measurement": "pActivity, HSP90AB1", "setting": "HSP90AB1", "result": 8.34}, {"measurement": "remaining activity at 10 µM", "setting": "DDR1; read-out: % Enzyme Activity (relative to DMSO controls), DDR1", "result": 93.4, "unit": "%"}, {"measurement": "remaining activity at 10 µM", "setting": "c-Src; read-out: % Enzyme Activity (relative to DMSO controls), c-Src", "result": 99, "unit": "%"}, {"measurement": "remaining activity at 10 µM", "setting": "PDK4/PDKH4; read-out: % Enzyme Activity (relative to DMSO controls), PDK4/PDKH4", "result": 94.8, "unit": "%"}, {"measurement": "remaining activity at 10 µM", "setting": "LYN B; read-out: % Enzyme Activity (relative to DMSO controls), LYN B", "result": 107, "unit": "%"}, {"measurement": "remaining activity at 10 µM", "setting": "BLK; read-out: % Enzyme Activity (relative to DMSO controls), BLK", "result": 116, "unit": "%"}, {"measurement": "remaining activity at 10 µM", "setting": "ABL2/ARG; read-out: % Enzyme Activity (relative to DMSO controls), ABL2/ARG", "result": 114, "unit": "%"}, {"measurement": "remaining activity at 10 µM", "setting": "FYN; read-out: % Enzyme Activity (relative to DMSO controls), FYN", "result": 113, "unit": "%"}, {"measurement": "remaining activity at 10 µM", "setting": "PEAK1; read-out: % Enzyme Activity (relative to DMSO controls), PEAK1", "result": 105, "unit": "%"}, {"measurement": "remaining activity at 10 µM", "setting": "YES/YES1; read-out: % Enzyme Activity (relative to DMSO controls), YES/YES1", "result": 101, "unit": "%"}, {"measurement": "remaining activity at 10 µM", "setting": "PASK; read-out: % Enzyme Activity (relative to DMSO controls), PASK", "result": 101, "unit": "%"}, {"measurement": "remaining activity at 10 µM", "setting": "TRKA; read-out: % Enzyme Activity (relative to DMSO controls), TRKA", "result": 107, "unit": "%"}, {"measurement": "activity against the 16-kinase panel", "setting": "16-kinase panel", "result": "inactive"}, {"measurement": "remaining activity at 10 µM", "setting": "TRKC; read-out: % Enzyme Activity (relative to DMSO controls), TRKC", "result": 93, "unit": "%"}, {"measurement": "remaining activity at 10 µM", "setting": "ABL1; read-out: % Enzyme Activity (relative to DMSO controls), ABL1", "result": 109, "unit": "%"}]}]}
